Test results taken from article PMC6366416, “Synthesis and in vitro anticancer activity of certain novel 1-(2-methyl-6-arylpyridin-3-yl)-3-phenylureas as apoptosis-inducing agents” (Journal of Enzyme Inhibition and Medicinal Chemistry, 2019).

Key:
[1] = test system: A498; experiment: NCI one-dose SRB growth inhibition; type: cell-based; settings: Homo sapiens, Renal Cancer, 48 h, read-out: GI% A498
Method: (§1) The antitumor assay was performed according to the protocol of the Drug Evaluation Branch, NCI, Bethesda[24–26]. A 48 h drug exposure protocol was adopted, and sulforhodamine B (SRB) assay[27] was utilized to assess the cell growth and viability, as reported earlier[17]^,[28].
(§2) The structures of all the newly synthesized pyridines 5a–l were submitted to the National Cancer Institute (NCI) Developmental Therapeutic Program (www.dtp.nci.nih.gov). […] Nine different types of cancer were tested in this assay: colon, ovarian, prostate, leukemia, melanoma, CNS, renal, breast and lung cancers. A 48 h drug exposure protocol was adopted, and sulforhodamine B (SRB) assay[27] was utilized to assess the cell growth and viability.

[2] = test system: A549/ATCC; experiment: NCI one-dose SRB growth inhibition; type: cell-based; settings: Homo sapiens, A549, 48 h, Non-Small Cell Lung Cancer, read-out: GI% A549/ATCC
Method: as §1, §2

[3] = test system: BT-549; experiment: NCI one-dose SRB growth inhibition; type: cell-based; settings: Homo sapiens, Breast Cancer, 48 h, read-out: GI% BT-549
Method: as §1, §2

[4] = test system: EKVX; experiment: NCI one-dose SRB growth inhibition; type: cell-based; settings: Homo sapiens, Non-Small Cell Lung Cancer, 48 h, read-out: GI% EKVX
Method: as §1, §2

[5] = test system: HCC-2998; experiment: NCI one-dose SRB growth inhibition; type: cell-based; settings: Homo sapiens, Colon Cancer, 48 h, read-out: GI% HCC-2998
Method: as §1, §2

[6] = test system: HCT-116; experiment: NCI one-dose SRB growth inhibition; type: cell-based; settings: Homo sapiens, HCT-116, 48 h, Colon Cancer, read-out: GI% HCT-116
Method: as §1, §2

[7] = test system: HCT-15; experiment: NCI one-dose SRB growth inhibition; type: cell-based; settings: Homo sapiens, HCT-15, 48 h, Colon Cancer, read-out: GI% HCT-15
Method: as §1, §2

[8] = test system: HT29; experiment: NCI one-dose SRB growth inhibition; type: cell-based; settings: Homo sapiens, HT-29, 48 h, Colon Cancer, read-out: GI% HT29
Method: as §1, §2

[9] = test system: LOX IMVI; experiment: NCI one-dose SRB growth inhibition; type: cell-based; settings: Homo sapiens, Melanoma, 48 h, read-out: GI% LOX IMVI
Method: as §1, §2

[10] = test system: MDA-MB-231; experiment: NCI one-dose SRB growth inhibition; type: cell-based; settings: Homo sapiens, Breast Cancer, 48 h, read-out: GI% MDA-MB-231
Method: as §1, §2

[11] = test system: NCI-H226; experiment: NCI one-dose SRB growth inhibition; type: cell-based; settings: Homo sapiens, Non-Small Cell Lung Cancer, 48 h, read-out: GI% NCI-H226
Method: as §1, §2

[12] = test system: NCI-H23; experiment: NCI one-dose SRB growth inhibition; type: cell-based; settings: Homo sapiens, Non-Small Cell Lung Cancer, 48 h, read-out: GI% NCI-H23
Method: as §1, §2

[13] = test system: NCI-H522; experiment: NCI one-dose SRB growth inhibition; type: cell-based; settings: Homo sapiens, NCI-H522, 48 h, Non-Small Cell Lung Cancer, read-out: GI% NCI-H522
Method: as §1, §2

[14] = test system: NCI/ADR-RES; experiment: NCI one-dose SRB growth inhibition; type: cell-based; settings: Homo sapiens, Ovarian Cancer, 48 h, read-out: GI% NCI/ADR-RES
Method: as §1, §2

[15] = test system: OVCAR-8; experiment: NCI one-dose SRB growth inhibition; type: cell-based; settings: Homo sapiens, Ovarian Cancer, 48 h, read-out: GI% OVCAR-8
Method: as §1, §2

[16] = test system: SF-539; experiment: NCI one-dose SRB growth inhibition; type: cell-based; settings: Homo sapiens, CNS Cancer, 48 h, read-out: GI% SF-539
Method: as §1, §2

[17] = test system: SK-MEL-5; experiment: NCI one-dose SRB growth inhibition; type: cell-based; settings: Homo sapiens, Melanoma, 48 h, read-out: GI% SK-MEL-5
Method: as §1, §2

[18] = test system: SN12C; experiment: NCI one-dose SRB growth inhibition; type: cell-based; settings: Homo sapiens, Renal Cancer, 48 h, read-out: GI% SN12C
Method: as §1, §2

[19] = test system: SNB-75; experiment: NCI one-dose SRB growth inhibition; type: cell-based; settings: Homo sapiens, CNS Cancer, 48 h, read-out: GI% SNB-75
Method: as §1, §2

[20] = test system: SR; experiment: NCI one-dose SRB growth inhibition; type: cell-based; settings: Homo sapiens, 48 h, Leukemia, read-out: GI% SR
Method: as §1, §2

[21] = test system: U251; experiment: NCI one-dose SRB growth inhibition; type: cell-based; settings: Homo sapiens, U-251, CNS Cancer, 48 h, read-out: GI% U251
Method: as §1, §2

[22] = test system: UACC-62; experiment: NCI one-dose SRB growth inhibition; type: cell-based; settings: Homo sapiens, UACC-62, 48 h, Melanoma, read-out: GI% UACC-62
Method: as §1, §2

[23] = test system: 60 cancer cell lines (NCI, USA); experiment: NCI one-dose SRB assay, whole panel; type: cell-based, human; settings: 10 μM; cell lines with GI% higher than 10%
Method: as §1, §2

[24] = test system: A549 cell line; experiment: MTT anti-proliferative assay; type: cell-based; settings: Homo sapiens, 48 h of incubation, mean ± SD of three experiments
Method: (§3) A549 (non-small cell lung cancer cell line) and HCT-116 (human colon cancer cell line), were obtained from American Type Culture Collection (Manassas, VA, USA). The cells were maintained in Dulbecco’s Modified Eagle’s Medium (DMEM) (Sigma-Aldrich, St. Louis, MO), and supplemented with 10% heat-inactivated FBS (Hyclone), 10 μg/mL of insulin (Manufacturer, Sigma, St. Louis, MO, USA), and 1% penicillin-streptomycin. MTT assay[29] was adopted to assess the in vitro antitumor activity of the newly synthesized pyridines 5a–l according to the reported procedures, using Doxorubicin as a standard treatment. Experimental conditions were tested using three replicates (three wells of the 96-well plate per experimental condition) and all experiments were carried out in triplicates. IC50 values were calculated by the use of the equation for Boltzman sigmoidal concentration–response curve using the nonlinear regression fitting models by Graph Pad, Prism version 5 (GraphPad Software Inc., La Jolla, CA).
(§4) All newly synthesized pyridines 5a–l were examined for their anti-proliferative activity towards two cancer cell lines: non-small cell lung cancer A549 cell line and colon cancer HCT-116 cell line. The MTT colorimetric assay was adopted to assess the anti-proliferative activity as described by Mosmann[29]. Doxorubicin was used as a control in this assay.

[25] = test system: HCT-116 cell line; experiment: MTT anti-proliferative assay; type: cell-based; settings: Homo sapiens, 48 h of incubation, mean ± SD of three experiments
Method: as §3, §4

[26] = test system: WI-38 cell line; experiment: MTT cytotoxicity towards non-tumorigenic cells; type: cell-based, human; settings: for IC50: WI-38, MTT, non-tumorigenic human lung fibroblast, mean ± SD of three experiments; for S. I. WI-38/A549: selectivity index, IC50 WI-38 / IC50 A549
Method: The cytotoxic activity of all synthesized pyridines 5a–l were assessed against non-tumorigenic human lung fibroblast WI-38 cell line to investigate their safety, using the MTT colorimetric assay.

Row | SMILES | inhibition at 10 µM [1] [%] | inhibition at 10 µM [2] [%] | inhibition at 10 µM [3] [%] | inhibition at 10 µM [4] [%] | inhibition at 10 µM [5] [%] | inhibition at 10 µM [6] [%] | inhibition at 10 µM [7] [%] | inhibition at 10 µM [8] [%] | inhibition at 10 µM [9] [%] | inhibition at 10 µM [10] [%] | inhibition at 10 µM [11] [%] | inhibition at 10 µM [12] [%] | inhibition at 10 µM [13] [%] | inhibition at 10 µM [14] [%] | inhibition at 10 µM [15] [%] | inhibition at 10 µM [16] [%] | inhibition at 10 µM [17] [%] | inhibition at 10 µM [18] [%] | inhibition at 10 µM [19] [%] | inhibition at 10 µM [20] [%] | further results
1 | Cc1nc(-c2ccc(Cl)cc2)ccc1NC(=O)Nc1cccc(C(F)(F)F)c1 [Compound 5e, 1-(6-(4-Chlorophenyl)-2-methylpyridin-3-yl)-3-(3-(trifluoromethyl)phenyl)urea] | < 10 | 10 | < 10 | < 10 | < 10 | 26 | 18 | 25 | < 10 | < 10 | < 10 | < 10 | 48 | < 10 | < 10 | < 10 | < 10 | < 10 | < 10 | 41 | inhibition at 10 µM [21]: 24%; inhibition at 10 µM [22]: < 10%; Sensitive cell lines no. [23]: 17; IC50 [24]: 11.9 ± 0.92 µM; IC50 [25]: 7.05 ± 0.72 µM; IC50 [26]: 130 ± 9.22 µM; S. I. WI-38/A549 [26]: 11.0
2 | Cc1nc(-c2cccs2)ccc1NC(=O)Nc1ccc(F)cc1 [Compound 5h, 1-(4-Fluorophenyl)-3-(2-methyl-6-(thiophen-2-yl)pyridin-3-yl)urea] | < 10 | 32 | < 10 | < 10 | 14 | 22 | 26 | 12 | < 10 | < 10 | < 10 | 16 | 39 | < 10 | < 10 | < 10 | 12 | < 10 | < 10 | 18 | inhibition at 10 µM [21]: < 10%; inhibition at 10 µM [22]: 18%; Sensitive cell lines no. [23]: 23; IC50 [24]: 10.6 ± 0.86 µM; IC50 [25]: 8.25 ± 0.84 µM; IC50 [26]: 143 ± 8.38 µM; S. I. WI-38/A549 [26]: 13.4
3 | Cc1nc(-c2cccs2)ccc1NC(=O)Nc1ccc(Cl)cc1 [Compound 5i, 1-(4-Chlorophenyl)-3-(2-methyl-6-(thiophen-2-yl)pyridin-3-yl)urea] | < 10 | 29 | < 10 | < 10 | < 10 | < 10 | < 10 | < 10 | < 10 | < 10 | < 10 | < 10 | 28 | < 10 | < 10 | < 10 | < 10 | < 10 | < 10 | < 10 | inhibition at 10 µM [21]: < 10%; inhibition at 10 µM [22]: 19%; Sensitive cell lines no. [23]: 9; IC50 [24]: 8.73 ± 0.71 µM; IC50 [26]: 129 ± 12 µM; S. I. WI-38/A549 [26]: 14.8
4 | Cc1nc(-c2ccc(Cl)cc2)ccc1NC(=O)Nc1ccc2c(c1)OCO2 [Compound 5g, 1-(Benzo[d][1,3]dioxol-5-yl)-3-(6-(4-chlorophenyl)-2-methylpyridin-3-yl)urea] | < 10 | 32 | < 10 | < 10 | < 10 | < 10 | < 10 | 11 | 34 | < 10 | < 10 | < 10 | 38 | < 10 | < 10 | < 10 | 17 | < 10 | < 10 | 22 | inhibition at 10 µM [21]: < 10%; inhibition at 10 µM [22]: 27%; Sensitive cell lines no. [23]: 12; IC50 [24]: 6.72 ± 0.38 µM; IC50 [26]: 63.5 ± 5.08 µM; S. I. WI-38/A549 [26]: 9.4
5 | CCOC(=O)c1ccc(NC(=O)Nc2ccc(-c3ccc(F)cc3)nc2C)cc1 [Compound 5c, Ethyl 4-(3-(6-(4-fluorophenyl)-2-methylpyridin-3-yl)ureido)benzoate] | < 10 | 25 | < 10 | < 10 | < 10 | < 10 | < 10 | 18 | 24 | < 10 | 12 | < 10 | 24 | < 10 | < 10 | < 10 | 38 | < 10 | < 10 | 16 | inhibition at 10 µM [21]: < 10%; inhibition at 10 µM [22]: 29%; Sensitive cell lines no. [23]: 13; IC50 [24]: 9.61 ± 1.03 µM; IC50 [26]: 123 ± 10.2 µM; S. I. WI-38/A549 [26]: 12.8
